Test results as given in patent publication US20110144345A1, “SULFOXYIMINO-SUBSTITUTED BENZOYL DERIVATIVE AND HERBICIDE” (NIPPON SODA CO., LTD., priority 2008, published 2011).

Columns and labels:
Echinochloa crus-galli = experiment: Paddy pot test, herbicidal effect on Echinochloa crus-galli; format: in vivo; design: scale not given here; details: Screening, 63 g/ha, applied at 1.5-leaf stage, examined after 3 weeks
In short: (§1)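 Puddled paddy soil sown with barnyardgrass and Scirpus juncoides seeds. 2.5-leaf rice transplanted, pots flooded and kept in a greenhouse. Herbicidal effect (herbicidal index) and rice injury scored after 3 weeks.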

Scirpus juncoides = experiment: Paddy pot test, herbicidal effect on Scirpus juncoides; format: in vivo; design: scale not given here; details: Screening, 63 g/ha, examined after 3 weeks
In short: as §1

rice plants = experiment: Paddy pot test, harmful effects on transplanted rice plants; format: in vivo; design: scale not given here; details: Screening, 63 g/ha, applied at Echinochloa crus-galli 1.5-leaf stage, examined after 3 weeks
In short: as §1

| SMILES | Echinochloa crus-galli (herbicidal index) (Echinochloa crus-galli) | Scripus juncoides (herbicidal index) (Scirpus juncoides) | Rice (harmful effects on the rice plants, index) (rice plants) | melting point [°C] |
| --- | --- | --- | --- | --- |
| Cc1c(N=S2(=O)CCCCC2)cccc1C(=O)c1cnn(C)c1O [Example 191] | 6 | 7 | 0 | 166 to 168 |
| COc1ccc(C(=O)c2cnn(C)c2O)c(F)c1N=S1(=O)CCCCC1 [Example 112] | 8 | 8 | 0 | 107 to 109 |
| COc1ccc(C(=O)c2cnn(C)c2O)c(Cl)c1N=S1(=O)CCCC1C (stereo not shown) [Example 218] | 6 | 7 | 0 | 84 to 86 |
| COc1c(C(=O)c2cnn(C)c2O)ccc(C)c1N=S1(=O)CCCCC1 [Example 135] | 5 | 7 | 0 | 85 to 87 |
| COc1ccc(C(=O)c2cnn(C)c2O)c(Cl)c1N=S1(=O)CCCC1 [Example 126] | 10 | 8 | 0 | 134 to 136 |
| COc1ccc(C(=O)c2cnn(C)c2OC(=O)c2ccc([N+](=O)[O-])cc2)c(Cl)c1N=S1(=O)CCCCC1 [Example 139] | 10 | 8 | 0 | 151 to 154 |
| COc1ccc(C(=O)c2cnn(C)c2O)c(OC)c1N=S1(=O)CCOCC1 [Example 133] | 6 | 7 | 0 | 72 to 74 |
| COc1ccc(C(=O)C2=C(O)CCCC2=O)c(Cl)c1N=S1(=O)CCCC1 [Example 127] | 8 | 8 | 0 | 153 to 155 |
| Cc1ccc(C(=O)c2c(C)nn(C)c2O)c(C)c1N=S1(=O)CCCCC1 [Example 109] | 7 | 8 | 0 | 122 to 124 |
| CCS(=O)(CC)=Nc1c(OC)ccc(C(=O)c2cnn(C)c2O)c1Cl [Example 247] | 10 | 9 | 0 | 165 to 168 |
| COc1ccc(C(=O)c2cnn(C)c2OC(=O)SC)c(Cl)c1N=S1(=O)CCCCC1 [Example 154] | 10 | 8 | 0 | 163 to 165 |
| COc1ccc(C(=O)c2cnn(C)c2[O-])c(Cl)c1N=S1(=O)CCCCC1.[Na+] [Example 115] | 10 | 8 | 0 | 224 to 226 |
| COc1ccc(C(=O)c2cnn(C)c2O)c(Cl)c1N=S(C)(C)=O [Example 150] | 5 | 8 | 0 | 164 to 166 |
| CCn1ncc(C(=O)c2ccc(C#N)c(N=S3(=O)CCCCC3)c2Cl)c1O [Example 187] | 10 | 5 | 0 | 159 to 161 |
| COc1ccc(C(=O)C2=C(O)CCCC2=O)c(Cl)c1N=S(C)(C)=O [Example 149] | 5 | 6 | 0 | 150 to 152 |
| CCn1ncc(C(=O)c2ccc(OC)c(N=S3(=O)CCCC3)c2Cl)c1O [Example 128] | 10 | 8 | 0 | 171 to 173 |
| Cn1ncc(C(=O)c2ccc(OC(F)F)c(N=S3(=O)CCCCC3)c2Cl)c1O [Example 181] | 10 | 9 | 0 | 158 to 161 |
| O=C1CCCC(O)=C1C(=O)c1ccc(OC(F)F)c(N=S2(=O)CCCCC2)c1Cl [Example 179] | 7 | 7 | 1 | 125 to 127 |
| COc1ccc(C(=O)c2cnn(C)c2O)c(OC)c1N=S1(=O)CCCC1 [Example 198] | 5 | 7 | 0 | 151 to 153 |
| COC(=O)c1ccc(C(=O)c2cnn(C)c2O)c(Cl)c1N=S(C)(C)=O [Example 161] | 9 | 8 | 0 | 115 to 125 |
| CSC(=O)Oc1c(C(=O)c2cccc(N=S3(=O)CCCCC3)c2C)cnn1C [Example 193] | 6 | 7 | 0 | 149 to 151 |
| Cn1ncc(C(=O)c2cccc(N=S3(=O)CCCCC3)c2Br)c1O [Example 196] | 6 | 8 | 0 | 177 to 179 |
| COc1ccc(C(=O)c2c(C)nn(C)c2O)c(Cl)c1N=S1(=O)CCCCC1 [Example 250] | 7 | 8 | 0 | 138 to 140 |
| CC(C)c1ccc(C(=O)c2cnn(C)c2O)c(Cl)c1N=S1(=O)CCCCC1 [Example 208] | 8 | 7 | 0 | 102 to 104 |
| C#CCOc1c(C(=O)c2ccc(OC)c(N=S3(=O)CCCCC3)c2Cl)cnn1C [Example 123] | 7 | 5 | 0 | 146 to 148 |
